Source: US10556879B2, “Retinoid compound, preparation method therefor, intermediates thereof and application thereof” (SHANGHAI INSTITUTE OF ORGANIC CHEMISTRY, CHINESE ACADEMY OF …, priority 2016, dated 2020)

These compounds were tested on tumor-repopulating cells of B16-F1 melanoma (assay: Inhibitory activity on proliferation of tumor-repopulating cells (TRCs) of B16-F1 melanoma in 3D fibrin gel). Details: Mus musculus, B16-F1, 120 h, read-out: Inhibition rate on TRCs of B16-F1 melanoma at a concentration of 10 μM (%).
Type: cell-based
Description: B16-F1 Melanoma cells were incubated with 3D fibrin gel medium (90-Pa) for 5 days, and the desired tumor-repopulating cells of melanoma were screened (Nat. Mater. 2012, 11, 734). Subsequently, the culture medium was respectively treated with collagenase and neutral protease II, and the tumor-repopulating cells of B16-F1 melanoma were released, then the obtained repopulating cells were transferred to a freshly prepared medium to be resuspended and maintained at single-cell state. The tumor-repopulating cells of B16-F1 melanoma were inoculated in 3D fibrin gel medium (90-Pa) for 5 days, with 0.1% DMSO as the negative control group, Tazarotene and Bexarotene as the positive control drugs respectively, […] for 5 days. The colony tumor size was measured and calculated, and the inhibition rate of each drug on the tumor-repopulating cells of B16-F1 melanoma was calculated. The results of inhibitory activity of the compound of the present invention on the proliferation of tumor-repopulating cells of B16-F1 melanoma were shown in Table 2 below.

SMILES | inhibition at 10 µM [%]
CC1(C)CCSc2ccc(C#Cc3ccc(C(=O)O)c(O)c3)cc21 [WYC-105, 4-((4,4-dimethylthiochroman-6-yl)ethynyl)-2-hydroxybenzoic Acid] | 64.1

Same assay, conditions: Mus musculus, B16-F1, 120 h; 10 μM, incubated 5 days, colony tumor size; read-out: Inhibition rate on TRCs of B16-F1 melanoma at a concentration of 10 μM (%)

SMILES | inhibition at 10 µM [%]
COC(=O)c1ccc(C#Cc2ccc3c(c2)C(C)(C)CC[S+]3[O-])cc1N (stereo not shown) [WYC-215, methyl 2-amino-4-((4,4-dimethyl-1-oxothiochroman-6-yl)ethynyl)benzoate] | 80.2
CCOC(=O)c1ncc(C#Cc2ccc3c(c2)C(C)(C)CCC3(C)C)cn1 [WYC-334, ethyl 5-((5,5,8,8-tetramethyl-5,6,7,8-tetrahydronaphth-2-yl)ethynyl)pyrimidin-2-carboxylate] | 80.6
COC(=O)c1ccc(C#Cc2ccc3c(c2)C(C)(C)CCS3)cc1OC [WYC-102, methyl 4-((4,4-dimethylthiochroman-6-yl)ethynyl)-2-methoxybenzoate] | 59.1
CC1(C)CC[S+]([O-])c2ccc(C#Cc3cnc(C#N)nc3)cc21 (stereo not shown) [WYC-207, 2-cyano-5-((4,4-dimethyl-1-oxothiochroman-6-yl)ethynyl)pyrimidine] | 92.5
CC(=O)Nc1cc(C#Cc2ccc3c(c2)C(C)(C)CCS3)ccc1C(=O)O [WYC-213, 2-acetamido-4-((4,4-dimethylthiochroman-6-yl)ethynyl)benzoic Acid] | 71.1
COc1cc(C#Cc2ccc3c(c2)C(C)(C)CCS3)ccc1C(=O)O [WYC-106] | 72.4
CCOC(=O)c1ccc(C#Cc2ccc3c(c2)C(c2ccccc2)=CCC3(C)C)cc1F [WYC-305, ethyl 4-((5,5-dimethyl-8-phenyl-5,6-dihydronaphth-2-yl)ethynyl)-2-fluorobenzoate] | 26
CCOC(=O)c1ccc(C#Cc2ccc3c(c2)C(C)(C)CC[S+]3[O-])c(F)c1 (stereo not shown) [WYC-312, ethyl 3-fluoro-4-((4,4-dimethyl-1-oxothiochroman-6-yl)ethynyl)benzoate] | 71
COC(=O)c1ccc(C#Cc2ccc3c(c2)C(c2ccccc2)=CCC3(C)C)cc1O [WYC-301, methyl 4-((5,5-dimethyl-8-phenyl-5,6-dihydronaphth-2-yl)ethynyl)-2-hydroxybenzoate] | 34.4
CCOC(=O)c1ccc(C#Cc2ccc3c(c2)C(C)(C)CCS3)cc1F [WYC-303, ethyl 2-fluoro-4-((4,4-dimethylthiochroman-6-yl)ethynyl)benzoate] | 71.1
CNc1cc(C#Cc2ccc3c(c2)C(C)(C)CCS3)ccc1C(=O)OC [WYC-219, methyl 2-methylamino-4-((4,4-dimethylthiochroman-6-yl)ethynyl)benzoate] | 64.8
CCOC(=O)c1cnc(C#Cc2ccc3c(c2)C(C)(C)CCS3(=O)=O)nc1 [WYC-320, ethyl 2-((4,4-dimethyl-1,1-dioxothiochroman-6-yl)ethynyl)pyrimidin-5-carboxylate] | 92.6
CC1(C)CCSc2ccc(C#Cc3cnc(C#N)nc3)cc21 [WYC-202, 2-cyano-5-((4,4-dimethylthiochroman-6-yl)ethynyl)pyrimidine] | 85.3
CCOC(=O)c1cnc(C#Cc2ccc3c(c2)C(C)(C)CCC3(C)C)cn1 [WYC-342, ethyl 5-((5,5,8,8-tetramethyl-5,6,7,8-tetrahydronaphth-2-yl)ethynyl)pyrazin-2-carboxylate] | 77.6
CC1(C)CCC(C)(C)c2cc(C#Cc3ccc(C(=O)O)c(N)c3)ccc21 [WYC-330, 2-amino-4-((5,5,8,8-tetramethyl-5,6,7,8-tetrahydronaphth-2-yl)ethynyl)benzoic Acid] | 79
CCOC(=O)c1cnc(C#Cc2ccc3c(c2)C(C)(C)CCS3)nc1 [WYC-203, ethyl 2-((4,4-dimethylthiochroman-6-yl)ethynyl)pyrimidin-5-carboxylate] | 90.5
CCOC(=O)c1ccc(C#Cc2ccc3c(c2)C(C)(C)CCC3(C)C)cn1 [WYC-341, ethyl 5-((5,5,8,8-tetramethyl-5,6,7,8-tetrahydronaphth-2-yl)ethynyl)pyridin-2-carboxylate] | 87
CCOC(=O)c1ccc(C#Cc2ccc3c(c2)C(C)(C)CC[S+]3[O-])c([N+](=O)[O-])c1 (stereo not shown) [WYC-311, ethyl 3-nitro-4-((4,4-dimethyl-1-oxothiochroman-6-yl)ethynyl)benzoate] | 80.2
CCOC(=O)c1ccc(C#Cc2ccc3c(c2)C(C)(C)CC[S+]3[O-])cc1Cl (stereo not shown) [WYC-326, ethyl 2-chloro-4-((4,4-dimethyl-1-oxothiochroman-6-yl)ethynyl)benzoate] | 73.4
CCOC(=O)c1ccc(C#Cc2ccc3c(c2)C(C)(C)CCS3)nc1 [Tazarotene, reference compound] | 67.6

SMILES | inhibition at 10 µM [%]
CCOC(=O)c1ncc(C#Cc2ccc3c(c2)C(C)(C)CCS3)cn1 [WYC-205, ethyl 5-((4,4-dimethylthiochroman-6-yl)ethynyl)pyrimidin-2-carboxylate] | 91.5
COC(=O)c1ncc(C#Cc2ccc3c(c2)C(C)(C)CCS3)cn1 [WYC-204, methyl 5-((4,4-dimethylthiochroman-6-yl)ethynyl)pyrimidin-2-carboxylate] | 25.6
CC1(C)CCC(C)(C)c2cc(C#Cc3ccc(C(=O)O)nc3)ccc21 [WYC-337, 5-((5,5,8,8-tetramethyl-5,6,7,8-tetrahydronaphth-2-yl)ethynyl)pyridin-2-carboxylic Acid] | 87.5
CCOC(=O)c1ccc(C#Cc2ccc3c(c2)C(C)(C)CC[S+]3[O-])c(NC(C)=O)c1 (stereo not shown) [WYC-318, ethyl 3-acetamido-4-((4,4-dimethyl-1-oxothiochroman-6-yl)ethynyl)benzoate] | 60
CCOC(=O)c1ccc(C#Cc2ccc3c(c2)C(C)(C)CCS3)cc1Cl [WYC-325, ethyl 2-chloro-4-((4,4-dimethylthiochroman-6-yl)ethynyl)benzoate] | 74.2
CCOC(=O)c1ccc(C#Cc2ccc3c(c2)C(C)(C)CC[S+]3[O-])cc1N (stereo not shown) [WYC-218, ethyl 2-amino-4-((4,4-dimethyl-1-oxothiochroman-6-yl)ethynyl)benzoate] | 90.4
CCOC(=O)c1ccc(C#Cc2ccc3c(c2)C(C)(C)CCS3)c(NC(C)=O)c1 [WYC-317, ethyl 3-acetamido-4-((4,4-dimethylthiochroman-6-yl)ethynyl)benzoate] | 86.4
CCOC(=O)c1cnc(C#Cc2ccc3c(c2)C(C)(C)CC[S@@+]3[O-])nc1 [WYC-209B, ethyl 2-((4,4-dimethyl-1R-oxothiochroman-6-yl)ethynyl)pyrimidin-5-carboxylate] | 98.7
COC(=O)c1ccc(C#Cc2ccc3c(c2)C(C)(C)CCS3)cc1O [WYC-101, methyl 4-((4,4-dimethylthiochroman-6-yl)ethynyl)-2-hydroxybenzoate] | 76
COC(=O)c1ccc(C#Cc2ccc3c(c2)C(C)(C)CCS3)cc1N [WYC-220, methyl 2-amino-4-((4,4-dimethylthiochroman-6-yl)ethynyl)benzoate] | 65.5
CCOC(=O)c1ccc(C#Cc2ccc3c(c2)C(C)(C)CCS3)c(F)c1 [WYC-307, ethyl 3-fluoro-4-((4,4-dimethylthiochroman-6-yl)ethynyl)benzoate] | 70.3
COC(=O)c1ccc(C#Cc2ccc3c(c2)C(C)(C)CC[S+]3[O-])c(NC(C)=O)c1 (stereo not shown) [WYC-321, methyl 3-acetamido-4-((4,4-dimethyl-1-oxothiochroman-6-yl)ethynyl)benzoate] | 78.2
CC1(C)CCC(C)(C)c2cc(C#Cc3ccc(C(=O)O)c(O)c3)ccc21 [WYC-335, 2-hydroxy-4-((5,5,8,8-tetramethyl-5,6,7,8-tetrahydronaphth-2-yl)ethynyl)benzoic Acid] | 86.9
CCOC(=O)c1ccc(C#Cc2ccc3c(c2)C(C)(C)CCS3)cc1N [WYC-216, ethyl 2-amino-4-((4,4-dimethylthiochroman-6-yl)ethynyl)benzoate] | 84
CC1(C)CCC(C)(C)c2cc(C#Cc3ccc(C#N)cn3)ccc21 [WYC-333, 2-((5,5,8,8-tetramethyl-5,6,7,8-tetrahydronaphth-2-yl)ethynyl)-5-cyanopyridine] | 69.1
CC(=O)Nc1cc(C(=O)O)ccc1C#Cc1ccc2c(c1)C(C)(C)CCS2 [WYC-319, 3-acetamido-4-((4,4-dimethylthiochroman-6-yl)ethynyl)benzoic Acid] | 65.8
CC1(C)CC[S+]([O-])c2ccc(C#Cc3ncc(C(=O)O)cn3)cc21 (stereo not shown) [WYC-210, 2-((4,4-dimethyl-1-oxothiochroman-6-yl)ethynyl)pyrimidin-5-carboxylic Acid] | 18.1
CC(=O)Nc1cc(C#Cc2ccc3c(c2)C(C)(C)CCC3(C)C)ccc1C(=O)O [WYC-336, 2-acetyl amino-4-((5,5,8,8-tetramethyl-5,6,7,8-tetrahydronaphth-2-yl)ethynyl)benzoic Acid] | 86.7
CCOC(=O)c1cnc(C#Cc2ccc3c(c2)C(C)(C)CCS3)cn1 [WYC-322, ethyl 5-((4,4-dimethylthiochroman-6-yl)ethynyl)pyrazin-2-carboxylate] | 78.8

Same assay, conditions: Mus musculus, B16-F1, dose-response curve, colony tumor volume; read-out: IC50 of inhibition on TRCs of B16-F1 melanoma/μM

SMILES | IC50 [µM]
CC1(C)CC[S+]([O-])c2ccc(C#Cc3cnc(C#N)nc3)cc21 (stereo not shown) [WYC-207, 2-cyano-5-((4,4-dimethyl-1-oxothiochroman-6-yl)ethynyl)pyrimidine] | 3.3
CCOC(=O)c1cnc(C#Cc2ccc3c(c2)C(C)(C)CCS3(=O)=O)nc1 [WYC-320, ethyl 2-((4,4-dimethyl-1,1-dioxothiochroman-6-yl)ethynyl)pyrimidin-5-carboxylate] | 1.65
CCOC(=O)c1cnc(C#Cc2ccc3c(c2)C(C)(C)CC[S@@+]3[O-])nc1 [WYC-209B, ethyl 2-((4,4-dimethyl-1R-oxothiochroman-6-yl)ethynyl)pyrimidin-5-carboxylate] | 0.22

Same assay, conditions: Mus musculus, B16-F1; 10 μM (Table 3); read-out: Inhibition rate on TRCs of B16-F1 melanoma at a concentration of 10 μM/%

SMILES | inhibition at 10 µM [%]
CC1(C)CC[S+]([O-])c2ccc(C#Cc3cnc(C#N)nc3)cc21 (stereo not shown) [WYC-207, 2-cyano-5-((4,4-dimethyl-1-oxothiochroman-6-yl)ethynyl)pyrimidine] | 92.5
CCOC(=O)c1cnc(C#Cc2ccc3c(c2)C(C)(C)CCS3(=O)=O)nc1 [WYC-320, ethyl 2-((4,4-dimethyl-1,1-dioxothiochroman-6-yl)ethynyl)pyrimidin-5-carboxylate] | 92.6
CCOC(=O)c1cnc(C#Cc2ccc3c(c2)C(C)(C)CC[S@@+]3[O-])nc1 [WYC-209B, ethyl 2-((4,4-dimethyl-1R-oxothiochroman-6-yl)ethynyl)pyrimidin-5-carboxylate] | 98.7
